# According to patent publication US12297194B2, “N2-phenylpyrimidine-2,4-diamine compounds, and preparation methods and methods of use thereof” (BRIDGE BIOTHERAPEUTICS, INC., priority 2021, dated 2025):
# Tests used:
# Type in all cases: cell-based, murine
# Ba/F3 EGFR Wild-type = Ba/F3 EGFR Wild-type (Homo sapiens, UniProt P00533); experiment: CellTiter-Glo cell viability, Ba/F3 EGFR wild-type cells; details: 72 hours, read-out: Ba/F3 EGFR mutant cell (IC50, nM) WT
# Summary of the method: (§1)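 IC50 values derive from CellTiter-Glo luminescence measured after 72 hours of treatment of EGFR-dependent Ba/F3 cells, dosed at concentrations up to 2000 nM starting 24 hours after seeding.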
# [1] = target: Ba/F3 EGFR L858R/C797S mutants (Homo sapiens, UniProt P00533, C797S/L858R, cells depend on it); experiment: CellTiter-Glo cell viability, Ba/F3 EGFR L858R/C797S cells; details: 72 hours, read-out: Ba/F3 EGFR mutant cell (IC50, nM) L/C
# Summary of the method: as §1
# [2] = target: Ba/F3 EGFR L858R/T790M/C797S mutants (Homo sapiens, UniProt P00533, T790M/C797S/L858R, cells depend on it); experiment: CellTiter-Glo cell viability, Ba/F3 EGFR L858R/T790M/C797S cells; details: 72 hours, read-out: Ba/F3 EGFR mutant cell (IC50, nM) L/T/C
# Sequence of Ba/F3 EGFR L858R/T790M/C797S mutants (P00533 whole entry T790M/C797S/L858R): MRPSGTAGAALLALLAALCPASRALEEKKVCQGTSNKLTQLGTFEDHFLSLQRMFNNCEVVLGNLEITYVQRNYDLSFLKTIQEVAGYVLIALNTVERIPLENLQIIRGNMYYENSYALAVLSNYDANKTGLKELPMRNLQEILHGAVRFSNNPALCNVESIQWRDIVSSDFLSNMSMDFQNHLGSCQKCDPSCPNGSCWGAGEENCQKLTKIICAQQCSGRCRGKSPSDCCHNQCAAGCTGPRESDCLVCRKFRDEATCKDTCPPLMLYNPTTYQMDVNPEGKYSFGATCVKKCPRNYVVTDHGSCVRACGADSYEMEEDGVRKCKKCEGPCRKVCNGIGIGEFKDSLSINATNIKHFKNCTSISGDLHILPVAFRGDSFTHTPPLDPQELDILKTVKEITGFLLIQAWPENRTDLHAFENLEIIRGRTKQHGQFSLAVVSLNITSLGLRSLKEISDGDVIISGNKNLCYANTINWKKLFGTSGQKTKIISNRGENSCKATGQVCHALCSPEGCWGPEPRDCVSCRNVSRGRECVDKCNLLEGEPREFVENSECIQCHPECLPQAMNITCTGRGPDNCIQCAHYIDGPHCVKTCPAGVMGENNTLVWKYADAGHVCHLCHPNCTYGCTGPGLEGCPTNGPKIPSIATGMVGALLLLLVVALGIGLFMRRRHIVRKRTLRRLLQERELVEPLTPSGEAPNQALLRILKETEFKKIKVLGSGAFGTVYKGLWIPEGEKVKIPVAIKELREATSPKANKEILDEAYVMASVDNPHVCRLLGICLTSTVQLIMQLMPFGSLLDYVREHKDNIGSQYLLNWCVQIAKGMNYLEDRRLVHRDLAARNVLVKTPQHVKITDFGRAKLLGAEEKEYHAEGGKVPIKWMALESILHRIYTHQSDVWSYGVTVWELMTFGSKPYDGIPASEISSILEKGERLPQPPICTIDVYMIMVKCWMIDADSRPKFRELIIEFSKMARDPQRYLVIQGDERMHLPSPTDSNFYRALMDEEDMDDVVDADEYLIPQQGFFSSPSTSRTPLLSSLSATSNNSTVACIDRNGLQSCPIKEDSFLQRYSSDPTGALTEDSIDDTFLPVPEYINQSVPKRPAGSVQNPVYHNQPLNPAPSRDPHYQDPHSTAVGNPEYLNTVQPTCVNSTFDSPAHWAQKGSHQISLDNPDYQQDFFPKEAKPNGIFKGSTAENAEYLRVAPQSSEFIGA
# Summary of the method: as §1
# [3] = target: Ba/F3 EGFR Del19/T790M mutants (Homo sapiens, UniProt P00533, T790M, cells depend on it, form not given); experiment: CellTiter-Glo cell viability, Ba/F3 EGFR Del19/T790M cells; details: 72 hours, read-out: Ba/F3 EGFR mutant cell (IC50, nM) D/T
# Summary of the method: as §1
# [4] = target: Ba/F3 EGFR Del19/C797S mutants (Homo sapiens, UniProt P00533, C797S, cells depend on it, form not given); experiment: CellTiter-Glo cell viability, Ba/F3 EGFR Del19/C797S cells; details: 72 hours, read-out: Ba/F3 EGFR mutant cell (IC50, nM) D/C
# Sequence of Ba/F3 EGFR Del19/C797S mutants (P00533 with tags, fused parts or gaps DEL746-750/C797S, form open): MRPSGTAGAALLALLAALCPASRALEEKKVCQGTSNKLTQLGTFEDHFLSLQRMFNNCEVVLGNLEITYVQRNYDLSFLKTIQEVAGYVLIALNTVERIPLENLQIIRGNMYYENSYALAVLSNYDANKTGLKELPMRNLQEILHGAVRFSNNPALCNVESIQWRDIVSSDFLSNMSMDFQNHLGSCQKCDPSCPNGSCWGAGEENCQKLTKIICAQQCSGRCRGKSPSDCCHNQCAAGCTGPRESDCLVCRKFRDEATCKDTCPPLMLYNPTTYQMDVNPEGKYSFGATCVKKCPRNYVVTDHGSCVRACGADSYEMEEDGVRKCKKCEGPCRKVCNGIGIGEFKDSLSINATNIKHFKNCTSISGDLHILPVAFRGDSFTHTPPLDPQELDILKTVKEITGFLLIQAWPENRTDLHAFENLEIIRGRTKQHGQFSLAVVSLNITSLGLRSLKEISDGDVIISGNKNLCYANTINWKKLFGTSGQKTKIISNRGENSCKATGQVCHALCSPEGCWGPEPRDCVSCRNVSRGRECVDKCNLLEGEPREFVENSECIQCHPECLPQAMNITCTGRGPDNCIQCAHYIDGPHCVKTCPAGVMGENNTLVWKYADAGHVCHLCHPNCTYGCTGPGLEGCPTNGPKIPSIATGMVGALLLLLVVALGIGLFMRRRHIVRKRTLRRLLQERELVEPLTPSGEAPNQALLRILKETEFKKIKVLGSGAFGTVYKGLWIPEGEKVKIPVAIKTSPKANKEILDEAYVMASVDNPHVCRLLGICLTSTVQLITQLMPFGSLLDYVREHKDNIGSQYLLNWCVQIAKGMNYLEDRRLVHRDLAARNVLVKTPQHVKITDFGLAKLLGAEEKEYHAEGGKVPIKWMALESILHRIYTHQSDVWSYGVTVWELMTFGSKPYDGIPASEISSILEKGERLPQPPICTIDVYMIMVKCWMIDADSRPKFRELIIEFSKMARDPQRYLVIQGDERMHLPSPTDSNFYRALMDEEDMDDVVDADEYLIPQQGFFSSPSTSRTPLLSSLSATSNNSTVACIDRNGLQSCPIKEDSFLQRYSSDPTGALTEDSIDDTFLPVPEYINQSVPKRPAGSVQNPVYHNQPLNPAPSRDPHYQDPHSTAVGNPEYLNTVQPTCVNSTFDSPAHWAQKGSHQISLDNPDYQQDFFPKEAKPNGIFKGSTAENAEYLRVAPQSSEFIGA
# Summary of the method: as §1
# [5] = target: Ba/F3 EGFR Del19/T790M/C797S mutants (Homo sapiens, UniProt P00533, T790M/C797S, cells depend on it, form not given); experiment: CellTiter-Glo cell viability, Ba/F3 EGFR Del19/T790M/C797S cells; details: 72 hours, read-out: Ba/F3 EGFR mutant cell (IC50, nM) D/T/C
# Sequence of Ba/F3 EGFR Del19/T790M/C797S mutants (P00533 with tags, fused parts or gaps DEL746-750/T790M/C797S, form open): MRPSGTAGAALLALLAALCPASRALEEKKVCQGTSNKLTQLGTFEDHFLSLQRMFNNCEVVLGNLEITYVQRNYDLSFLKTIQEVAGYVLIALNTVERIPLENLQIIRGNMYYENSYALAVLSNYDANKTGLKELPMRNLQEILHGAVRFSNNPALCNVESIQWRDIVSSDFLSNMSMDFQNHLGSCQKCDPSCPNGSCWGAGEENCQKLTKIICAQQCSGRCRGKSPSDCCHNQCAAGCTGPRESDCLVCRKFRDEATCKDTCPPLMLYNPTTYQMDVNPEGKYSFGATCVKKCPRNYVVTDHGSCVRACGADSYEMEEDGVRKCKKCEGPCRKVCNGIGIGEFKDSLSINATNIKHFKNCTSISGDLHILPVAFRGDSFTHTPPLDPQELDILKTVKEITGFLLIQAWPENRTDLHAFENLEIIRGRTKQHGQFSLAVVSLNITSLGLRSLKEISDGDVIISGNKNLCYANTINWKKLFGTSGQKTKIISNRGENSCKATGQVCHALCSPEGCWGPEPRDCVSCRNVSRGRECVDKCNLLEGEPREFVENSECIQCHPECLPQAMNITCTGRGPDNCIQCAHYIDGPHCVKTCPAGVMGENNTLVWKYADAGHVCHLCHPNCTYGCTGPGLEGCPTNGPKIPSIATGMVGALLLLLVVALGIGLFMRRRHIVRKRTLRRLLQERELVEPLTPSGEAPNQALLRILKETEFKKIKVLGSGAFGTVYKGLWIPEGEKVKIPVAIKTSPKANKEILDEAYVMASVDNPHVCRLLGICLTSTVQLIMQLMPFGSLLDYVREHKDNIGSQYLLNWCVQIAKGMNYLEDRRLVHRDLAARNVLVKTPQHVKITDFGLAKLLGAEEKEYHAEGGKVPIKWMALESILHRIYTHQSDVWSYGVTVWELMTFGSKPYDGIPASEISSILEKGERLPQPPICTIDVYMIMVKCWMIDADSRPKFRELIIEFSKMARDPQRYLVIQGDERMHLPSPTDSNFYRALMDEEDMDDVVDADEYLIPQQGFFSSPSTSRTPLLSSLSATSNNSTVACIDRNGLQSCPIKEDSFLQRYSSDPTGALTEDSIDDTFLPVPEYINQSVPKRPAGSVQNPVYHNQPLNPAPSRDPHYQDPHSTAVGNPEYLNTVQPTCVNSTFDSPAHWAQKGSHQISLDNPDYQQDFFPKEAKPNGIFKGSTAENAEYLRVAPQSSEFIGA
# Summary of the method: as §1
# Sequence of Ba/F3 EGFR Wild-type (P00533 whole entry, change not shown): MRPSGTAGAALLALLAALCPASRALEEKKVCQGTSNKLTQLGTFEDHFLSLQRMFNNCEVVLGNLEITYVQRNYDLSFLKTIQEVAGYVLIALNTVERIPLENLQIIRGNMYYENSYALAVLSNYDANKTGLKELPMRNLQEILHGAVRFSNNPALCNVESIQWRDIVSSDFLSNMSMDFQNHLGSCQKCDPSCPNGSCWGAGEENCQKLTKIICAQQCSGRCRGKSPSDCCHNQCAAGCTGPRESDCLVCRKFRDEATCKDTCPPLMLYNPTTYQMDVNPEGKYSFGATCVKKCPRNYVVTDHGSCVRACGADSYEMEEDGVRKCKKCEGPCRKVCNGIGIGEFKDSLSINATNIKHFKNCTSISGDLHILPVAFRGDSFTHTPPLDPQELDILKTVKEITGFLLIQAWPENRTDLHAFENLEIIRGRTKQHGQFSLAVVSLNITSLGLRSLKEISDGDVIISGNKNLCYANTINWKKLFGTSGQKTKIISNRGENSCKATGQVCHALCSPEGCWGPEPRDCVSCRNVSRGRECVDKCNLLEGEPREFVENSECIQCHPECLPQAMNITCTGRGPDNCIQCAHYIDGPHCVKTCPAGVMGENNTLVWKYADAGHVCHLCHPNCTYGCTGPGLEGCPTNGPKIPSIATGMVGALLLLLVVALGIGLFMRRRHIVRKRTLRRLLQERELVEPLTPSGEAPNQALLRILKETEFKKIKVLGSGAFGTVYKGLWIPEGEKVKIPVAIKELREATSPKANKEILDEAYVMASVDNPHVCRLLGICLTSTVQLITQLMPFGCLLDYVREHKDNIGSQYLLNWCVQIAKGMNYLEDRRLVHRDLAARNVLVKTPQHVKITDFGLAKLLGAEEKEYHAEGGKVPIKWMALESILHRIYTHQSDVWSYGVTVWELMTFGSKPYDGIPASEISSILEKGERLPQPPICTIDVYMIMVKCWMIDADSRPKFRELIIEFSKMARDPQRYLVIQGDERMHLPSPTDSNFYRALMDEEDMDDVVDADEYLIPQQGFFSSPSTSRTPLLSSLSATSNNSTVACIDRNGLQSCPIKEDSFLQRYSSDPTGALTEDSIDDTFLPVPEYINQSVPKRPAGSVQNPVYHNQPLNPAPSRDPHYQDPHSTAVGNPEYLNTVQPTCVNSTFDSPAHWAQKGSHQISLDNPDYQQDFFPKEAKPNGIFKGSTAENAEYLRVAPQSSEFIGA
smiles,measurement,setting,value
"CCCc1cc(Nc2ncc(Br)c(Nc3ccc4nccnc4c3NS(C)(=O)=O)n2)c(OC)cc1N1CCC(N(C)C)CC1 [Example B13, N-(6-((5-bromo-2-((4-(4-(dimethylamino)piperidin-1-yl)-2-methoxy-5-propylphenyl)amino)pyrimidin-4-yl)amino)quinoxalin-5-yl)methanesulfonamide]",GI50,Ba/F3 EGFR Wild-type,468 nM
same,GI50,[1],114 nM
same,GI50,[2],22 nM
same,GI50,[3],13 nM
same,GI50,[4],41 nM
same,GI50,[5],60 nM
"CCCc1cc(Nc2ncc(Cl)c(Nc3ccc4nccnc4c3N(C)S(C)(=O)=O)n2)c(OC)cc1N1CCC(N2CCOCC2)CC1 [Example A41, N-(6-((5-chloro-2-((2-methoxy-4-(4-morpholinopiperidin-1-yl)-5-propylphenyl)amino)pyrimidin-4-yl)amino)quinoxalin-5-yl)-N-methylmethanesulfonamide]",GI50,Ba/F3 EGFR Wild-type,> 2000 nM
same,GI50,[1],210 nM
same,GI50,[2],258 nM
same,GI50,[3],44 nM
same,GI50,[4],8 nM
same,GI50,[5],28 nM
"COc1cc(N2CCC(N3CCOCC3)CC2)c(C)cc1Nc1ncc(Br)c(Nc2ccc3nccnc3c2NS(C)(=O)=O)n1 [Example A23, N-(6-((5-bromo-2-((2-methoxy-5-methyl-4-(4-morpholinopiperidin-1-yl)phenyl)amino)pyrimidin-4-yl)amino)quinoxalin-5-yl)methanesulfonamide]",GI50,Ba/F3 EGFR Wild-type,416 nM
same,GI50,[1],114 nM
same,GI50,[2],49 nM
same,GI50,[3],41 nM
same,GI50,[4],51 nM
same,GI50,[5],16 nM
"CCc1cc(Nc2ncc(Cl)c(Nc3ccc(OC)c(OC)c3NS(C)(=O)=O)n2)c(OC)cc1N1CCC(N2CCOCC2)CC1 [Example C18, N-(6-((5-chloro-2-((5-ethyl-2-methoxy-4-(4-morpholinopiperidin-1-yl)phenyl)amino)pyrimidin-4-yl)amino)-2,3-dimethoxyphenyl)methanesulfonamide]",GI50,Ba/F3 EGFR Wild-type,835 nM
same,GI50,[1],215 nM
same,GI50,[2],194 nM
same,GI50,[3],39 nM
same,GI50,[4],55 nM
same,GI50,[5],54 nM
"COc1cc(N2CCC(N3CCOCC3)CC2)c(C)cc1Nc1ncc(Cl)c(Nc2ccc3nccnc3c2NS(C)(=O)=O)n1 [Example A31, N-(6-((5-chloro-2-((2-methoxy-5-methyl-4-(4-morpholinopiperidin-1-yl)phenyl)amino)pyrimidin-4-yl)amino)quinoxalin-5-yl)methanesulfonamide]",GI50,Ba/F3 EGFR Wild-type,223 nM
same,GI50,[1],79 nM
same,GI50,[2],43 nM
same,GI50,[3],39 nM
same,GI50,[4],50 nM
same,GI50,[5],131 nM
"CCc1cc(Nc2ncc(Cl)c(Nc3ccc4nccnc4c3N(C)S(C)(=O)=O)n2)c(OC)cc1N1CCC(N2CC3CCC2CN3C)CC1 (stereo not drawn) [Example A47, N-(6-((5-chloro-2-((5-ethyl-2-methoxy-4-(4-(5-methyl-2,5-diazabicyclo[2.2.2]octan-2-yl)piperidin-1-yl)phenyl)amino)pyrimidin-4-yl)amino)quinoxalin-5-yl)-N-methylmethanesulfonamide]",GI50,Ba/F3 EGFR Wild-type,730 nM
same,GI50,[1],125 nM
same,GI50,[2],64 nM
same,GI50,[3],17 nM
same,GI50,[4],7 nM
same,GI50,[5],25 nM
"COc1cc(N2CCC(N3CCCC3)CC2)c(C)cc1Nc1ncc(Cl)c(Nc2cccc(OC)c2NS(C)(=O)=O)n1 [Example C10, N-(2-((5-chloro-2-((2-methoxy-5-methyl-4-(4-(pyrrolidin-1-yl)piperidin-1-yl)phenyl)amino)pyrimidin-4-yl)amino)-6-methoxyphenyl)methanesulfonamide]",GI50,Ba/F3 EGFR Wild-type,404 nM
same,GI50,[1],61 nM
same,GI50,[2],45 nM
same,GI50,[3],6 nM
same,GI50,[4],9 nM
same,GI50,[5],9 nM
"CCc1cc(Nc2ncc(Br)c(Nc3ccc4nccnc4c3N(C)S(C)(=O)=O)n2)c(OC)cc1N1CCC(N2CCCCC2)CC1 [Example A44, N-(6-((2-((4-([1,4′-bipiperidin]-1′-yl)-5-ethyl-2-methoxyphenyl)amino)-5-bromopyrimidin-4-yl)amino)quinoxalin-5-yl)-N-methylmethanesulfonamide]",GI50,Ba/F3 EGFR Wild-type,> 2000 nM
same,GI50,[1],94 nM
same,GI50,[2],38 nM
same,GI50,[3],12 nM
same,GI50,[4],6 nM
same,GI50,[5],10 nM
